Reference: patent US9624238B2, “4H-thieno[3,2-C]chromene-based inhibitors of Notum Pectinacetylesterase and methods of their use” (Lexicon Pharmaceuticals, Inc., priority 2011, dated 2017)

Legend:
[1] = target: T1, human notum pectinacetyltransferase (Homo sapiens, UniProt Q6P988); assay: Binding assay (OPTS esterase substrate, fluorimetric); type: biochemical
T1 construct: made in house; unpurified conditioned medium used
T1 sequence (Q6P988 20-496): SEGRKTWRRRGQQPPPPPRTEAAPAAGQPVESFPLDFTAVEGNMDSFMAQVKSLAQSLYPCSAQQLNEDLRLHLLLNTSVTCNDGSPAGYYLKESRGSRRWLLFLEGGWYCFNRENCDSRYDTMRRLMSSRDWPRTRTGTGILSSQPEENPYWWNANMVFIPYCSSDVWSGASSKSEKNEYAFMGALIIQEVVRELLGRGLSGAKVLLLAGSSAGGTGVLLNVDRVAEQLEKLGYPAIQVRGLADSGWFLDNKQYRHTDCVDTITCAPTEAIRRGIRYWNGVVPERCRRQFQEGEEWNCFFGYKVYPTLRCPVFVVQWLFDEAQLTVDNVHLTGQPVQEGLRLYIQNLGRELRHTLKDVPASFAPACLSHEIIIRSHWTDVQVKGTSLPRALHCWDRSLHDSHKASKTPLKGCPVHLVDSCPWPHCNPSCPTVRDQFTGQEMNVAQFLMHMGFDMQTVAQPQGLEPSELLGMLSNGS
Protocol: Plasmid containing human notum pectinacetyltransferase in pcDNA3.1(+) vector was transfected into HEK (293 cells and clones were selecting by growing in presence of 400 ug/mL of G418. Condition media from these cells was used for the assay.

[2] = target: T1, human notum pectinacetyltransferase; assay: Reporter assay (CellSensor LEF/TCF-bla FreeStyle 293F cells, Wnt3a and notum conditioned media); type: cell-based
[3] = given as numeric bound above the legend's highest class
[4] = given as a numeric bound above the legend's range

In the case of `NC(=O)c1cc2c(s1)-c1c(F)cc(F)cc1OC2` [7,9-difluoro-4H-thieno[3,2-c]chromene-2-carboxamide], the IC50 ([1]; class symbols) is reported as < 50 nM and the EC50 ([2]; class symbols) is reported as < 50 nM.

`CCOC(=O)c1cc2c(s1)-c1cccc(OC)c1CC2` was tested, and the IC50 [1, 3] was > 2000 nM and the EC50 ([2]; class symbols) was < 500 nM.

With `O=C(O)c1cc2c(s1)-c1c(F)ccc(F)c1OC2` the IC50 ([1]; class symbols) was < 100 nM and the EC50 ([2]; class symbols) was < 50 nM.

With `NC(=O)c1cc2c(s1)-c1cc(F)cc(F)c1OC2` the IC50 ([1]; class symbols) was < 50 nM and the EC50 ([2]; class symbols) was < 50 nM.

For `Cc1ccc2c(c1F)CCc1cc(C(N)=O)sc1-2`, the IC50 ([1]; class symbols) was < 50 nM and the EC50 ([2]; class symbols) was < 50 nM.

For `O=C(O)c1cc2c(s1)-c1ccc(Cl)c(F)c1SC2`, the IC50 ([1]; class symbols) was < 50 nM and the EC50 ([2]; class symbols) was < 50 nM.

`COCCNC(=O)c1cc2c(s1)-c1cccc(F)c1CC2` was tested, and the IC50 ([1]; class symbols) was < 100 nM and the EC50 ([2]; class symbols) was < 50 nM.

`O=C(O)C1CCN(C(=O)c2cc3c(s2)-c2cc(F)cc(F)c2SC3)C1` (centres unmarked) was tested, and the IC50 ([1]; class symbols) was < 1000 nM and the EC50 ([2]; class symbols) was < 50 nM.

In the case of `O=C(O)c1cc2c(s1)-c1cc(F)ccc1OCC2`, the IC50 ([1]; class symbols) is reported as < 50 nM and the EC50 ([2]; class symbols) is reported as < 50 nM.

For `O=C(O)c1cc2ccc3scc(Cl)c3c2s1`, the IC50 ([1]; class symbols) was < 50 nM and the EC50 ([2]; class symbols) was < 1000 nM.

For `O=C(O)c1cc2c(s1)-c1cc([N+](=O)[O-])ccc1OC2`, the IC50 ([1]; class symbols) was < 1000 nM and the EC50 ([2]; class symbols) was < 50 nM.

In the case of `COc1ccc2c(c1Cl)CCc1cc(C(=O)N3CCC(C#N)C3)sc1-2` (centres unmarked), the IC50 ([1]; class symbols) is reported as < 100 nM and the EC50 ([2]; class symbols) is reported as < 50 nM.

With `NC(=O)c1cc2c(s1)-c1cccc(Cl)c1OC2` the IC50 ([1]; class symbols) was < 1000 nM and the EC50 ([2]; class symbols) was < 50 nM.

For `O=C(O)c1cc2c(s1)-c1cc(F)cc(F)c1CC2`, the IC50 ([1]; class symbols) was < 1000 nM and the EC50 ([2]; class symbols) was < 50 nM.

In the case of `Cc1ccc(Cl)c2c1-c1sc(C(=O)O)cc1CO2`, the IC50 ([1]; class symbols) is reported as < 1000 nM and the EC50 ([2]; class symbols) is reported as < 50 nM.

For `O=C(O)c1cc2c(s1)-c1cccc(Cl)c1CC2`, the IC50 ([1]; class symbols) was < 100 nM and the EC50 ([2]; class symbols) was < 50 nM.

With `Cc1cc(C)c2c(c1)OCc1cc(C(=O)O)sc1-2` the IC50 [1, 4] was > 2000 nM and the EC50 ([2]; class symbols) was < 50 nM.

For `O=C(NCCc1nnn[nH]1)c1cc2c(s1)-c1cccc(F)c1CC2`, the IC50 ([1]; class symbols) was < 1000 nM and the EC50 ([2]; class symbols) was < 50 nM.

`O=C(O)c1cc2c(s1)-c1cc(F)c(F)cc1CC2` was tested, and the IC50 ([1]; class symbols) was < 50 nM and the EC50 ([2]; class symbols) was < 50 nM.

In the case of `O=C(O)c1cc2c(s1)-c1cc(F)c(F)cc1OC2`, the IC50 ([1]; class symbols) is reported as < 100 nM and the EC50 ([2]; class symbols) is reported as < 50 nM.

For `COc1ccc2c(c1Br)CCc1cc(C(=O)O)sc1-2`, the IC50 ([1]; class symbols) was < 50 nM and the EC50 ([2]; class symbols) was < 50 nM.

For `Cc1cc(C)c2c(c1)-c1sc(C(N)=O)cc1CO2`, the IC50 ([1]; class symbols) was < 2000 nM and the EC50 ([2]; class symbols) was < 50 nM.

In the case of `O=C(O)c1cc2c(s1)-c1ccccc1OCC2`, the IC50 ([1]; class symbols) is reported as < 50 nM and the EC50 ([2]; class symbols) is reported as < 50 nM.

`O=C(O)c1cc2c(s1)-c1ccc(F)cc1CC2` was tested, and the IC50 ([1]; class symbols) was < 1000 nM and the EC50 ([2]; class symbols) was < 50 nM.

For `N#Cc1ccc2c(c1)-c1sc(C(=O)O)cc1CC2`, the IC50 [1, 3] was > 2000 nM and the EC50 ([2]; class symbols) was < 1000 nM.

With `NC(=O)c1cc2c(s1)-c1cc(F)cc(F)c1CC2` the IC50 ([1]; class symbols) was < 50 nM and the EC50 ([2]; class symbols) was < 50 nM.

`NC(=O)c1cc2c(s1)-c1ccc(Cl)c(Cl)c1OCC2` was tested, and the IC50 ([1]; class symbols) was < 2000 nM and the EC50 ([2]; class symbols) was < 50 nM.

In the case of `N#CC1CCN(C(=O)c2cc3c(s2)-c2ccc(Cl)c(Cl)c2OC3)C1` (centres unmarked), the IC50 ([1]; class symbols) is reported as < 100 nM and the EC50 ([2]; class symbols) is reported as < 50 nM.

`NC(=O)c1cc2c(s1)-c1ccccc1S(=O)(=O)C2` was tested, and the IC50 ([1]; class symbols) was < 1000 nM and the EC50 ([2]; class symbols) was < 50 nM.

With `CC1Cc2cc(C(=O)O)sc2-c2cc(F)c(F)cc21` (centres unmarked) the IC50 ([1]; class symbols) was < 1000 nM and the EC50 ([2]; class symbols) was < 50 nM.

With `O=C(O)c1cc2c(s1)-c1ccc(Br)cc1CC2` the IC50 ([1]; class symbols) was < 1000 nM and the EC50 ([2]; class symbols) was < 50 nM.

In the case of `COc1cc2c(cc1C#N)-c1sc(C(=O)O)cc1CC2`, the IC50 [1, 4] is reported as > 2000 nM and the EC50 [2, 4] is reported as > 1000 nM.

In the case of `COc1ccc2c(c1Br)CCc1cc(C(N)=O)sc1-2`, the IC50 ([1]; class symbols) is reported as < 50 nM and the EC50 ([2]; class symbols) is reported as < 50 nM.

With `CC1(C)Cc2cc(C(=O)O)sc2-c2cc(F)c(F)cc21` the IC50 ([1]; class symbols) was < 2000 nM and the EC50 ([2]; class symbols) was < 50 nM.

In the case of `NC(=O)c1cc2c(s1)-c1cccc(F)c1CC2`, the IC50 ([1]; class symbols) is reported as < 50 nM and the EC50 ([2]; class symbols) is reported as < 50 nM.

In the case of `O=C(O)c1cc2c(s1)-c1cc(F)c(F)cc1SC2`, the IC50 ([1]; class symbols) is reported as < 100 nM and the EC50 ([2]; class symbols) is reported as < 50 nM.

In the case of `CC1(C)Cc2cc(C(N)=O)sc2-c2ccc(Cl)cc21`, the IC50 ([1]; class symbols) is reported as < 1000 nM and the EC50 ([2]; class symbols) is reported as < 50 nM.

In the case of `NC(=O)c1cc2c(s1)-c1ccc(Cl)c(Cl)c1OC2`, the IC50 ([1]; class symbols) is reported as < 100 nM and the EC50 ([2]; class symbols) is reported as < 50 nM.

`NC(=O)c1cc2c(s1)-c1cc(Cl)c(Cl)cc1CC2` was tested, and the IC50 ([1]; class symbols) was < 1000 nM and the EC50 ([2]; class symbols) was < 50 nM.

`CCOC(=O)c1cc2c(s1)-c1ccc(C)c(C#N)c1CC2` [ethyl 6-cyano-7-methyl-4,5-dihydronaphtho[1,2-b]thiophene-2-carboxylate] was tested, and the IC50 ([1]; class symbols) was < 50 nM and the EC50 ([2]; class symbols) was < 50 nM.

With `N#Cc1cccc2c1CCc1cc(C(N)=O)sc1-2` the IC50 ([1]; class symbols) was < 1000 nM and the EC50 ([2]; class symbols) was < 50 nM.

With `CC1Cc2cc(C(=O)O)sc2-c2ccccc21` (centres unmarked) the IC50 ([1]; class symbols) was < 1000 nM and the EC50 ([2]; class symbols) was < 50 nM.

`COc1ccc2c(c1F)CCc1cc(C(=O)O)sc1-2` was tested, and the IC50 ([1]; class symbols) was < 100 nM and the EC50 ([2]; class symbols) was < 50 nM.

In the case of `COc1ccc2c(c1Cl)CCc1cc(C(=O)NCCC#N)sc1-2`, the IC50 ([1]; class symbols) is reported as < 1000 nM and the EC50 ([2]; class symbols) is reported as < 50 nM.

With `Cc1ccc2c(c1Cl)CCc1cc(C(N)=O)sc1-2` the IC50 ([1]; class symbols) was < 50 nM and the EC50 ([2]; class symbols) was < 50 nM.

`O=C1CCN(C(=O)c2cc3c(s2)-c2ccc(Cl)c(Cl)c2OC3)C1` was tested, and the IC50 ([1]; class symbols) was < 100 nM and the EC50 ([2]; class symbols) was < 50 nM.

`NC(=O)c1cc2c(s1)-c1cc(Cl)cc(Cl)c1SC2` was tested, and the IC50 ([1]; class symbols) was < 2000 nM and the EC50 ([2]; class symbols) was < 50 nM.

For `O=C(NCCO)c1cc2c(s1)-c1ccccc1CCC2`, the IC50 ([1]; class symbols) was < 100 nM and the EC50 ([2]; class symbols) was < 100 nM.

For `Cc1cc(F)cc2c1OCc1cc(C(=O)O)sc1-2`, the IC50 ([1]; class symbols) was < 100 nM and the EC50 ([2]; class symbols) was < 50 nM.

`NC(=O)c1cc2c(s1)-c1ccc(F)cc1CC2` was tested, and the IC50 ([1]; class symbols) was < 50 nM and the EC50 ([2]; class symbols) was < 50 nM.

With `O=C(O)c1cc2c(s1)-c1ccccc1S(=O)(=O)CC2` the IC50 [1, 3] was > 2000 nM and the EC50 ([2]; class symbols) was < 1000 nM.

In the case of `Cc1cc(C)c2c(c1)-c1sc(C(=O)O)cc1CC2`, the IC50 ([1]; class symbols) is reported as < 50 nM and the EC50 ([2]; class symbols) is reported as < 50 nM.

`Nc1c(C(=O)O)sc2c1CSc1ccccc1-2` [3-amino-4H-thieno[3,2-c]thiochromene-2-carboxylic acid] was tested, and the IC50 ([1]; class symbols) was < 1000 nM and the EC50 ([2]; class symbols) was < 50 nM.

`CCOC(=O)c1cc2c(s1)-c1ccc(C)c(Cl)c1CC2` was tested, and the IC50 ([1]; class symbols) was < 1000 nM and the EC50 ([2]; class symbols) was < 50 nM.

For `CC(C)c1ccc2c(c1)-c1sc(C(N)=O)cc1CO2`, the IC50 [1, 4] was > 2000 nM and the EC50 ([2]; class symbols) was < 1000 nM.

With `Cc1cc2c(cc1F)-c1sc(C(=O)O)cc1CO2` the IC50 ([1]; class symbols) was < 100 nM and the EC50 ([2]; class symbols) was < 50 nM.

With `Cc1ccc(Cl)c2c1-c1sc(C(N)=O)cc1CO2` the IC50 ([1]; class symbols) was < 50 nM and the EC50 ([2]; class symbols) was < 50 nM.

For `O=C(O)c1cc2c(s1)-c1ccsc1CC2`, the IC50 ([1]; class symbols) was < 50 nM and the EC50 ([2]; class symbols) was < 500 nM.
